Results published in patent US9573930B2 (Quanticel Pharmaceuticals, Inc., priority 2014, dated 2017).

biological target: full-length human LSD1 (Homo sapiens (Human), UniProt O60341); test: In vitro enzyme inhibition assay LSD-1 (TR-FRET); assay type: biochemical; conditions: H3K4me1-biotin peptide
Procedure: This assay determines the ability of a test compound to inhibit LSD1 demethylase activity.
The enzymatic assay of LSD1 activity is based on Time Resolved-Fluorescence Resonance Energy Transfer (TR-FRET) detection.
The ability of the compounds disclosed herein to inhibit LSD1 activity was quantified and the respective IC50 value was determined.

Row | Compound | IC50 [nM]
1 | Cn1c(N2CCC(N)CC2)nc(-c2ccc(C#N)cc2)c(-c2ccc(C(N)=O)c(F)c2)c1=O [Example 41, 4-[2-(4-aminopiperidyl)-6-(4-cyanophenyl)-3-methyl-4-oxo(3-hydropyrimidin-5-yl)]-2-fluorobenzamide] | < 100
2 | Cn1c(N2CCC(N)CC2)nc(-c2ccc(C#N)c(F)c2)c(-c2ccc(CO)cc2)c1=O [Example 100, 4-[2-(4-aminopiperidin-1-yl)-5-[4-(hydroxymethyl)phenyl]-1-methyl-6-oxopyrimidin-4-yl]-2-fluorobenzonitrile] | < 100
3 | N#Cc1ccc(-c2cc(=O)n(CCCO)c(N3CCC(N)CC3)n2)cc1F [Example 17, 4-[2-(4-amino-piperidin-1-yl)-1-(3-hydroxy-propyl)-6-oxo-1,6-dihydro-pyrimidin-4-yl]-2-fluoro-benzonitrile] | 100 to 1000
4 | COc1ccc(-c2c(-c3ccc(C#N)cc3)nc(N3CCCNCC3)n(C)c2=O)cn1 [Example 62] | < 100
5 | Cn1c(N2CCC(N)CC2)nc(-c2ccc(C#N)c(F)c2)c(C#CC2CCCC2)c1=O [Example 14, 4-[2-(4-amino-piperidin-1-yl)-5-cyclopentylethynyl-1-methyl-6-oxo-1,6-dihydro-pyrimidin-4-yl]-2-fluoro-benzonitrile] | < 100
